Consider nine molecules from patent US11365202B2, “Antimalarial compounds, process for preparation and their use for drug resistant malaria” (Council of Scientific and Industrial Research, priority 2018, dated 2022).

SMILES strings stand for the structures. Like-named read-outs stand apart in the source and are kept apart here.

As usually defined, the EC50 is the concentration that produces a half-maximal response. One may read the IC50 as the concentration needed to halve the response being measured.

One series deals with P. falciparum 3D7. As to the kind of experiment: P. falciparum growth inhibition assay, 3D7 strain. In kind it is cell-based. The settings on record: Plasmodium falciparum, read-out: EC50 on P. falciparum 3D7. The protocol:
(§1) P. falciparum strain 3D7, Dd2 and 7G8 were cultured in RPMI media (Invitrogen) supplemented with 0.5% albumax and 4% haematocrit using a protocol described previously [Trager and Jensen (Science,1976; 193:673-675)]. Cultures were synchronized by repeated sorbitol treatment following Lambros and Vanderberg (J Parasitol; 1979; 65:418-420). Each growth inhibition assay was performed in triplicate and the experiment was repeated twice. Each well contained 0.5 ml of complete media [RPMI (invitrogen) with 0.5% albumax], 4% haematocrit and the parasitaemia adjusted to ˜1%; the compound added to the parasite cultures to desired final concentrations (0-100 µM) and same amount of solvent (DMSO) was added to the control wells. The cultures were allowed to grow further for 48 h. Parasite growth was assessed by DNA fluorescent dye-binding assay using SYBR green (Sigma) following Smilkstein et al (Antimicrob Agents Chemother.; 2004, 48, 1803-1806). • f) In Vitro Toxicity Assay on CHO Cells

The subject of the next series is P. falciparum 7G8. As to the kind of experiment: P. falciparum growth inhibition assay, 7G8 strain. The series is classed as cell-based. The settings on record: Plasmodium falciparum. The protocol: as §1
In the next series the test system is P. falciparum Dd2. The experiment in a line: P. falciparum growth inhibition assay, Dd2 strain. In kind it is cell-based. The settings on record: Plasmodium falciparum. The protocol:
as §1

Another series has as its system A549 human cells. As to the kind of experiment: In vitro toxicity on mammalian cell culture. In kind it is cell-based. The settings on record: for EC50: Homo sapiens, A549, in vitro toxicity.
A further series has as its target falcipain-2 (Plasmodium falciparum (isolate 3D7), UniProt Q8I6U4). The experiment in a line: Fluorometric assay for falcipain-2 activity. The series is classed as biochemical.
In another series the test system is P. berghei. As to the kind of experiment: In vivo parasiticidal assay with P. berghei mice malaria model. The settings on record: for protection in treated group of mice: 12.5 mg/kg of body weight; for Complete Protection - Mice with complete parasite clearance / Survival after treatment: 4 doses of 12.5 mg/Kg of body weight, infected BALB/c mice. The protocol: Five groups of female BALB/c mice, 6-8 weeks of age (four mice/group) were used for testing the in vivo parsiticidal and protective efficacy of different drug treatments. Mice were injected IP with 1×10^6 P. berghei infected erythrocytes. The drug treatment was initiated 5 days after inducing parasitemia; mice in a group were given 4 doses of a compound at 12.5 mg/Kg of body weight. Control mice were given solvent alone. The parasitemia was assessed everyday in thin smears of Giemsa stained RBCs from tail blood of each mouse, by counting parasitized erythrocytes in more than 10,000 erythrocytes. Time of death of the mice in each group was also monitored.

Setting [1] is: 7G8, read-out: EC50 on P. falciparum 7G8.
Where [2] appears, read: DD2, read-out: EC50 on P. falciparum Dd2.

Chain of falcipain-2 (Q8I6U4 244-484 limits assumed): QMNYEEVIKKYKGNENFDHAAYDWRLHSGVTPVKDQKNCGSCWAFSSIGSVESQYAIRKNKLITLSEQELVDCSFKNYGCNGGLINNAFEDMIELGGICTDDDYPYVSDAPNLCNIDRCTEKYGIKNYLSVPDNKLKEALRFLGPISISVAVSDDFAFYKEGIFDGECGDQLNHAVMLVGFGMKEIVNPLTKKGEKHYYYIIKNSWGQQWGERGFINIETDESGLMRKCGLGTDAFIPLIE
Method for falcipain-2: Recombinant falcipain-2 was prepared according to the method described by Shenai et al. (J Biol Chem.; 2000, 275(37): 29000-10) and Kumar et al. (Biochem Biophys. Res Commun. 2004, 317(1), 38-45) with slight modification. Briefly, Escherichia coli M15 containing pQE30-FP-2 plasmid were grown to mid-log phase and induced with isopropyl-1-thio-b-D-galactopyranoside (IPTG, 0.5 mM) for 5 h at 37° C. Cells were harvested, washed with ice-cold 100 mM Tris-Cl, 10 mM EDTA, pH 7.4, sonicated (12 cycles of 10 s each, with cooling for 10 s between the cycles), and centrifuged at 15,000 rpm for 45 min at 4° C. The pellet was washed twice with 2.5 M urea, 20 mM Tris-Cl2.5% Triton X-100, pH 8.0; centrifuged at 15,000 rpm for 45 min at 4° C.; and solubilized in 6 M guanidine HCl, 20 mM Tris-Cl, 250 mM NaCl, 20 mM imidazole, pH 8.0 (5 ml/g of inclusion body pellet) at RT for 60 min with gentle stirring. Insoluble material was separated by centrifuging at 15,000 rpm for 60 min at 4° C. For the purification of the recombinant protein, the supernatant was incubated overnight at 4° C. with a nickel-nitrilotriacetic acid (Ni-NTA) resin. The resin was loaded on a column and washed with 10 bed volumes each of 6 M guanidine HCl, 20 mM Tris-Cl, 250 mM NaCl, pH 8.0; 8 M urea, 20 mM Tris-Cl, 500 mM NaCl, pH 8.0; and 8 M urea, 20 mM Tris-Cl, 30 mM imidazole, pH 8.0. Bound protein was eluted with 8 M urea, 20 mM Tris-Cl, 1 M imidazole, pH 8.0 and quantified by the Biocinchoninic acid assay. For the refolding, the fractions containing falcipain-2 protein were pooled in ice-cold refolding buffer: 100 mM diluted in Tris-Cl, 1 mM EDTA, 20% glycerol, 250 mM L-arginine, 1 mM GSH, 1 mM GSSG, pH 8.0 was added in a 100 fold dilution. The mixture was incubated with moderate stirring at 4° C. for 24 h, and concentrated to 25 ml using a stirred cell with a 10-kDa cut-off membrane (Pellicon XL device, Millipore) at 4° C. […] The purified and concentrated protein was quantified using Biocinchoninic acid assay. • b) Fluorometric Assay for Falcipain-2 activity:
For screening of falcipain-2 inhibitors, a 96-well plate fluorometric assay was developed following a protocol described by Kumar et al. (Biochem Biophys Res Commun.; 2004, 317(1), 38-45) Briefly, reaction was set up in a 200 ml reaction mixture containing 100 mM NaOAc, 10 mM DTT, 6 mg enzyme and different concentrations of inhibitors, pH 5.5. 10 mM of fluorogenic substrate benzyloxycarbonyl-Phe-Arg-7-amino-4-methylcoumarin hydrochloride (ZFR-AMC) was added, and the release of 7-amino-4-methylcoumarin (AMC) was monitored (excitation 355 nm; emission 460 nm) over 30 min at RT in Perkin Elmer Victor3 multi-label counter. […] The IC50 values were calculated from curve fittings by software Workout V 2.5.

On to `CCOP(=O)(/C=C/C(NC(=O)[C@H](Cc1ccccc1)NC(=O)[C@H](CO[C@H]1O[C@@H]2O[C@@]3(C)CC[C@H]4[C@H](C)CC[C@@H]([C@H]1C)[C@@]24OO3)NC(=O)OCc1ccccc1)c1ccccc1)OCC` (mixture of isomers) [Compound 2, Benzyl ((2S)-1-(((2S)-1-(((E)-3-(diethoxyphosphoryl)-1-phenylallyl)amino)-1-oxo-3-phenylpropan-2-yl)amino)-1-oxo-3-(((3R,5aS,6R,8aS,9R,10S,12R,12 aR)-3,6,9-trimethyldeca hydro-12H-3,12-epoxy[1,2]dioxepino[4,3-i]isochromen-10-yl)oxy)propan-2-yl)carbamate], for which the concentration for a half-maximal effect (EC50) in the series with P. falciparum 3D7 (3D7, 48 h) was 2.7 nM; with P. falciparum 7G8 (setting [1]), 0.47 nM; with P. falciparum Dd2 (setting [2]), 1.9 nM; with A549 human cells, 14600 ± 175 nM.

Consider `CCOP(=O)(/C=C/C(NC(=O)[C@H](Cc1ccccc1)NC(=O)[C@@H]1C[C@@H](O[C@H]2O[C@@H]3OC4(C)CC[C@H]5[C@H](C)CC[C@@H]([C@H]2C)[C@@]35OO4)CN1C(=O)OCc1ccccc1)c1ccccc1)OCC` (stereo in doubt) [Compound 6, Benzyl (2S,4R)-2-(((2S)-1-(((E)-3-(diethoxyphosphoryl)-1-phenylallyl)amino)-1-oxo-3-phenylpropan-2-yl)carbamoyl)-4-(((3R,5aS,6R,8aS,9R,10S,12R,12aR)-3,6,9-trimethyldecahydro-12H-3,12-epoxy[1,2]dioxepino[4,3-i]isochromen-10-yl)oxy)pyrrolidine-1-carboxylate], for which, on falcipain-2, the “activity against falcipain-2 enzyme (in words)” value (“activity” below) was “inactive”.

In the case of `CCOP(=O)(/C=C/C(NC(=O)[C@H](CC(C)C)NC(=O)[C@H](CO[C@H]1O[C@@H]2OC3(C)CC[C@H]4[C@H](C)CC[C@@H]([C@H]1C)[C@@]24OO3)NC(=O)OCc1ccccc1)c1ccccc1)OCC` (stereo in doubt) [Compound 3, Benzyl ((2S)-1-(((2S)-1-(((E)-3-(diethoxyphosphoryl)-1-phenylallyl)amino)-4-methyl-1-oxopentan-2-yl)amino)-1-oxo-3-(((3R,5aS,6R,8aS,9R,10S,12R,12aR)-3,6,9-trimethyldeca hydro-12H-3,12-epoxy[1,2]dioxepino[4,3-i]isochromen-10-yl)oxy)propan-2-yl)carbamate], the EC50 with P. falciparum 3D7 (3D7, 48 h) came out at 3.3 nM; in the series on P. falciparum 7G8 (setting [1]), 0.23 nM; in the series with P. falciparum Dd2 (setting [2]) it was 3.5 nM; in the series with A549 human cells, 3820 ± 161 nM. The “protection in treated group of mice” value in the series on P. berghei is listed as 100%. Further, in the series with P. berghei, the “Complete Protection - Mice with complete parasite clearance” value (“Complete Protection - Mice” below) is listed as 100% of treated mice. The molecule further gave a Survival after treatment in the series with P. berghei greater than 60 days. The “in vitro toxicity on A549 human cells (in words)” value (from here on “in vitro toxicity”) in the series on A549 human cells is on record as “non-toxic”.

With `CCOP(=O)(/C=C/C(NC(=O)[C@H](CO[C@H]1O[C@@H]2O[C@@]3(C)CC[C@H]4[C@H](C)CC[C@@H]([C@H]1C)[C@@]24OO3)NC(=O)OCc1ccccc1)c1ccccc1)OCC` (mixture of isomers) [Compound 1, Benzyl ((2S)-1-(((E)-3-(diethoxyphosphoryl)-1-phenylallyl)amino)-1-oxo-3-(((3R,5aS,6R, 8aS,9R,10S,12R,12aR)-3,6,9-trimethyldecahydro-12H-3,12-epoxy[1,2]dioxepino[4,3-i]isochromen-10-yl)oxy)propan-2-yl)carbamate], on falcipain-2, the IC50 is greater than 100000 nM and the “activity” value was “inactive”.

As for `CCOP(=O)(/C=C/C(NC(=O)[C@H](Cc1ccccc1)NC(=O)[C@H](CO[C@H]1O[C@@H]2O[C@@]3(C)CC[C@H]4[C@H](C)CC[C@@H]([C@H]1C)[C@@]24OO3)NC(=O)OCc1ccccc1)c1ccccc1)OCC` (stereo partly drawn) [Compound 2, Benzyl ((2S)-1-(((2S)-1-(((E)-3-(diethoxyphosphoryl)-1-phenylallyl)amino)-1-oxo-3-phenylpropan-2-yl)amino)-1-oxo-3-(((3R,5aS,6R,8aS,9R,10S,12R,12 aR)-3,6,9-trimethyldeca hydro-12H-3,12-epoxy[1,2]dioxepino[4,3-i]isochromen-10-yl)oxy)propan-2-yl)carbamate], in the series with P. berghei, the “protection in treated group of mice” value was found to be 100%, the “Complete Protection - Mice” value was 80% of treated mice and the Survival after treatment is greater than 60 days. For the same molecule, in the series with A549 human cells, the “in vitro toxicity” value was “non-toxic”.

On to `CCOP(=O)(/C=C/[C@@H](NC(=O)[C@H](Cc1ccccc1)NC(=O)[C@H](CO[C@H]1O[C@@H]2O[C@@]3(C)CC[C@H]4[C@H](C)CC[C@@H]([C@H]1C)[C@@]24OO3)NC(=O)OCc1ccccc1)c1ccccc1)OCC` [Compound 2a, Benzyl ((S)-1-(((S)-1-(((R,E)-3-(diethoxyphosphoryl)-1-phenylallyl)amino)-1-oxo-3-phenylpropan-2-yl)amino)-1-oxo-3-(((3R,5aS,6R,8aS,9R,10S,12R,12aR)-3,6,9-trimethyldeca hydro-12H-3,12-epoxy[1,2]dioxepino[4,3-i]isochromen-10-yl)oxy)propan-2-yl)carbamate], for which, in the series with P. falciparum 3D7 (3D7, 48 h), the EC50 came to 0.95 nM.

Regarding `CCOP(=O)(/C=C/C(NC(=O)[C@@H]1C[C@@H](O[C@H]2O[C@@H]3OC4(C)CC[C@H]5[C@H](C)CC[C@@H]([C@H]2C)[C@@]35OO4)CN1C(=O)OCc1ccccc1)c1ccccc1)OCC` (stereo in doubt) [Compound 4, Benzyl (2S,4R)-2-(((E)-3-(diethoxyphosphoryl)-1-phenylallyl)carbamoyl)-4-(((3R,5aS, 6R,8aS,9R,10S,12R,12aR)-3,6,9-trimethyldecahydro-12H-3,12-epoxy[1,2]dioxepino[4,3-i]isochromen-10-yl)oxy)pyrrolidine-1-carboxylate], on falcipain-2, the “activity” value was “inactive”.

Regarding `C[C@@H]1CC[C@H]2[C@@H](C)C(=O)O[C@@H]3O[C@@]4(C)CC[C@@H]1[C@]32OO4` [Artemisinin, reference compound], the concentration for a half-maximal effect (EC50) was roughly 27 nM in the series on P. falciparum 3D7 (3D7, chloroquine-sensitive strain, in vitro culture, 48 h); roughly 18 nM with P. falciparum 7G8 (7G8, Chloroquine and Pyrimethamine resistant strain, in vitro culture, read-out: EC50 on P. falciparum 7G8); roughly 15 nM with P. falciparum Dd2 (DD2, Chloroquine, Pyrimethamine and Mefloquine resistant strain, in vitro culture, read-out: EC50 on P. falciparum Dd2). For the same molecule, the “Complete Protection - Mice” value in the series with P. berghei is given as 0% of treated mice. The Survival after treatment in the series on P. berghei is 15 to 25 days.

Consider `CCOP(=O)(/C=C/C(NC(=O)[C@H](CC(C)C)NC(=O)[C@@H]1C[C@@H](O[C@H]2O[C@@H]3OC4(C)CC[C@H]5[C@H](C)CC[C@@H]([C@H]2C)[C@@]35OO4)CN1C(=O)OCc1ccccc1)c1ccccc1)OCC` (stereo in doubt) [Compound 5, Benzyl (2S,4R)-2-(((2S)-1-(((E)-3-(diethoxyphosphoryl)-1-phenylallyl)amino)-4-methyl-1-oxopentan-2-yl)carbamoyl)-4-(((3R,5aS,6R,8aS,9R,10S,12R,12aR)-3,6,9-trimethyldeca hydro-12H-3,12-epoxy[1,2]dioxepino[4,3-i]isochromen-10-yl)oxy)pyrrolidine-1-carboxylate], for which the half-maximal effective concentration (EC50) with P. falciparum 3D7 (3D7, 48 h) stood at 2.57 nM. Moreover, the EC50 in the series with P. falciparum 7G8 (setting [1]) was 1.2 nM. Moreover, the EC50 in the series on P. falciparum Dd2 (setting [2]) was 5.5 nM. For the same molecule, in the series with P. berghei, the “protection in treated group of mice” value is recorded as 100%, the “Complete Protection - Mice” value is 100% of treated mice and the Survival after treatment was greater than 60 days. Besides, in the series with A549 human cells, the “in vitro toxicity” value is “non-toxic” and the concentration for a half-maximal effect (EC50) worked out at 1280 ± 156 nM.
